Laboratory results: PubChem BioAssay AID1918952 (Molecular Pharmacology Branch, DTP, NCI, 2023)

Tested on: LG0703-F948-PDC complex spheroid viability
Assay: Anticancer human tumor LG0703-F948-PDC patient-derived lung adenocarcinoma cell line growth inhibition
Conditions: for IC50: curve of first compound; for viability, T/C: stronger effect = lower value; active = viability on the fitted dose curve at most 10% of control; inactive = the rest
In short: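 Complex spheroids of tumor cells with HUVEC and human MSCs, exposed to iadademstat combined with other agents. Each agent tested in half-log steps from near clinical Cmax (else 10 microM top), DMSO ≤0.25%.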

[1] = second compound 0.1 µM, first compound 0.0316 µM
[2] = second compound 0.1 µM, first compound 0.1 µM
[3] = second compound 0.1 µM, first compound 0.316 µM
[4] = second compound 0.1 µM, first compound 1 µM
[5] = second compound 0.1 µM, first compound 3.16 µM
[6] = second compound 0.1 µM, first compound 10 µM
[7] = second compound 0.316 µM, first compound 0.0316 µM
[8] = second compound 0.316 µM, first compound 0.1 µM
[9] = second compound 0.316 µM, first compound 0.316 µM
[10] = second compound 0.316 µM, first compound 1 µM
[11] = second compound 0.316 µM, first compound 3.16 µM
[12] = second compound 0.316 µM, first compound 10 µM
[13] = second compound 1 µM, first compound 0.0316 µM
[14] = second compound 1 µM, first compound 0.1 µM
[15] = second compound 1 µM, first compound 0.316 µM
[16] = second compound 1 µM, first compound 1 µM
[17] = second compound 1 µM, first compound 3.16 µM
[18] = second compound 1 µM, first compound 10 µM
[19] = second compound 3.16 µM, first compound 0.0316 µM
[20] = second compound 3.16 µM, first compound 0.1 µM
[21] = second compound 3.16 µM, first compound 0.316 µM
[22] = second compound 3.16 µM, first compound 1 µM
[23] = second compound 3.16 µM, first compound 3.16 µM
[24] = second compound 3.16 µM, first compound 10 µM
[25] = second compound 10 µM, first compound 0.0316 µM
[26] = second compound 10 µM, first compound 0.1 µM
[27] = second compound 10 µM, first compound 0.316 µM
[28] = second compound 10 µM, first compound 1 µM
[29] = second compound 10 µM, first compound 3.16 µM
[30] = second compound 10 µM, first compound 10 µM
[31] = second compound 0.1 µM, first compound 0.00949 µM
[32] = second compound 0.1 µM, first compound 0.03 µM
[33] = second compound 0.1 µM, first compound 0.0949 µM
[34] = second compound 0.1 µM, first compound 0.3 µM
[35] = second compound 0.316 µM, first compound 0.00949 µM
[36] = second compound 0.316 µM, first compound 0.03 µM
[37] = second compound 0.316 µM, first compound 0.0949 µM
[38] = second compound 0.316 µM, first compound 0.3 µM
[39] = second compound 1 µM, first compound 0.00949 µM
[40] = second compound 1 µM, first compound 0.03 µM
[41] = second compound 1 µM, first compound 0.0949 µM
[42] = second compound 1 µM, first compound 0.3 µM
[43] = second compound 3.16 µM, first compound 0.00949 µM
[44] = second compound 3.16 µM, first compound 0.03 µM
[45] = second compound 3.16 µM, first compound 0.0949 µM
[46] = second compound 3.16 µM, first compound 0.3 µM
[47] = second compound 10 µM, first compound 0.00949 µM
[48] = second compound 10 µM, first compound 0.03 µM
[49] = second compound 10 µM, first compound 0.0949 µM
[50] = second compound 10 µM, first compound 0.3 µM
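Note: spheroids exposed to agents for seven days before readout.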
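Throughout, for viability, T/C: 100% = DMSO vehicle control wells as normalization base.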

CC1(C)CCC(CN2CCN(c3ccc(C(=O)NS(=O)(=O)c4ccc(NCC5CCOCC5)c([N+](=O)[O-])c4)c(Oc4cnc5[nH]ccc5c4)c3)CC2)=C(c2ccc(Cl)cc2)C1 + NC1CC1c1ccc(-c2cccc(O)c2)cc1
2.37 µM: IC50 (second compound 10 µM)
2.47 µM: IC50 (second compound 0.316 µM)
2.34 µM: IC50 (second compound 3.16 µM)
2.64 µM: IC50 (second compound 1 µM)
active: viability, T/C [6] 3.56% | viability, T/C [12] 3% | viability, T/C [18] 5.17% | viability, T/C [24] 3.01% | viability, T/C [30] 3.13%
2.72 µM: IC50 (second compound 0.1 µM)
inactive: viability, T/C [1] 98.2% | viability, T/C [2] 113% | viability, T/C [3] 111% | viability, T/C [4] 98% | viability, T/C [5] 42.8% | viability, T/C [7] 102% | viability, T/C [8] 103% | viability, T/C [9] 100% | viability, T/C [10] 103% | viability, T/C [11] 35.6% | viability, T/C [13] 106% | viability, T/C [14] 104% | viability, T/C [15] 111% | viability, T/C [16] 85.6% | viability, T/C [17] 43.8% | viability, T/C [19] 104% | viability, T/C [20] 81.7% | viability, T/C [21] 102% | viability, T/C [22] 111% | viability, T/C [23] 32.5% | viability, T/C [25] 103% | viability, T/C [26] 104% | viability, T/C [27] 93.9% | viability, T/C [28] 86.4% | viability, T/C [29] 38%

CC1COCCN1c1cc(C2(S(C)(=N)=O)CC2)nc(-c2ccnc3[nH]ccc23)n1 (stereo not given) + NC1CC1c1ccc(-c2cccc(O)c2)cc1
4.65 µM: IC50 (second compound 0.316 µM)
inactive: viability, T/C [1] 120% | viability, T/C [2] 104% | viability, T/C [3] 92.9% | viability, T/C [4] 92.1% | viability, T/C [5] 69.7% | viability, T/C [6] 24.1% | viability, T/C [7] 111% | viability, T/C [8] 101% | viability, T/C [9] 118% | viability, T/C [10] 97% | viability, T/C [11] 63.8% | viability, T/C [12] 23.6% | viability, T/C [13] 111% | viability, T/C [14] 97.9% | viability, T/C [15] 113% | viability, T/C [16] 102% | viability, T/C [17] 70.8% | viability, T/C [18] 23.4% | viability, T/C [19] 96% | viability, T/C [20] 89.8% | viability, T/C [21] 102% | viability, T/C [22] 79.5% | viability, T/C [23] 54.1% | viability, T/C [24] 22.4% | viability, T/C [25] 96.5% | viability, T/C [26] 98.9% | viability, T/C [27] 91.1% | viability, T/C [28] 79.7% | viability, T/C [29] 58.6% | viability, T/C [30] 14.8%
3.92 µM: IC50 (second compound 10 µM)
3.55 µM: IC50 (second compound 3.16 µM)
5.24 µM: IC50 (second compound 1 µM)
5 µM: IC50 (second compound 0.1 µM)

CCN(c1cc(-c2ccc(CN3CCOCC3)cc2)cc(C(=O)NCc2c(C)cc(C)[nH]c2=O)c1C)C1CCOCC1 + NC1CC1c1ccc(-c2cccc(O)c2)cc1
inactive: viability, T/C [31] 104% | viability, T/C [32] 113% | viability, T/C [33] 93.7% | viability, T/C [34] 105% | viability, T/C (second compound 0.1 µM, first compound 0.949 µM) 107% | viability, T/C (second compound 0.1 µM, first compound 3 µM) 105% | viability, T/C [35] 112% | viability, T/C [36] 93.9% | viability, T/C [37] 101% | viability, T/C [38] 93.6% | viability, T/C (second compound 0.316 µM, first compound 0.949 µM) 102% | viability, T/C (second compound 0.316 µM, first compound 3 µM) 94.9% | viability, T/C [39] 89.3% | viability, T/C [40] 98.8% | viability, T/C [41] 95.6% | viability, T/C [42] 96.2% | viability, T/C (second compound 1 µM, first compound 0.949 µM) 94.7% | viability, T/C (second compound 1 µM, first compound 3 µM) 93.2% | viability, T/C [43] 93.7% | viability, T/C [44] 95.6% | viability, T/C [45] 93.7% | viability, T/C [46] 85.1% | viability, T/C (second compound 3.16 µM, first compound 0.949 µM) 99.7% | viability, T/C (second compound 3.16 µM, first compound 3 µM) 95.2% | viability, T/C [47] 105% | viability, T/C [48] 91.9% | viability, T/C [49] 84.6% | viability, T/C [50] 81.6% | viability, T/C (second compound 10 µM, first compound 0.949 µM) 81.8% | viability, T/C (second compound 10 µM, first compound 3 µM) 86.1%
> 3 µM: IC50 (second compound 0.1 µM) | IC50 (second compound 0.316 µM) | IC50 (second compound 1 µM) | IC50 (second compound 3.16 µM) | IC50 (second compound 10 µM)

Cn1ncnc1C1c2n[nH]c(=O)c3cc(F)cc(c23)NC1c1ccc(F)cc1 (stereo not given) + NC1CC1c1ccc(-c2cccc(O)c2)cc1
> 0.1 µM: IC50 (second compound 0.1 µM) | IC50 (second compound 0.316 µM) | IC50 (second compound 1 µM) | IC50 (second compound 3.16 µM) | IC50 (second compound 10 µM)
inactive: viability, T/C (second compound 0.1 µM, first compound 0.000316 µM) 105% | viability, T/C (second compound 0.1 µM, first compound 0.001 µM) 114% | viability, T/C (second compound 0.1 µM, first compound 0.00316 µM) 94.9% | viability, T/C (second compound 0.1 µM, first compound 0.01 µM) 100% | viability, T/C [1] 108% | viability, T/C [2] 125% | viability, T/C (second compound 0.316 µM, first compound 0.000316 µM) 113% | viability, T/C (second compound 0.316 µM, first compound 0.001 µM) 114% | viability, T/C (second compound 0.316 µM, first compound 0.00316 µM) 117% | viability, T/C (second compound 0.316 µM, first compound 0.01 µM) 100% | viability, T/C [7] 93.7% | viability, T/C [8] 105% | viability, T/C (second compound 1 µM, first compound 0.000316 µM) 102% | viability, T/C (second compound 1 µM, first compound 0.001 µM) 112% | viability, T/C (second compound 1 µM, first compound 0.00316 µM) 120% | viability, T/C (second compound 1 µM, first compound 0.01 µM) 109% | viability, T/C [13] 111% | viability, T/C [14] 106% | viability, T/C (second compound 3.16 µM, first compound 0.000316 µM) 119% | viability, T/C (second compound 3.16 µM, first compound 0.001 µM) 123% | viability, T/C (second compound 3.16 µM, first compound 0.00316 µM) 101% | viability, T/C (second compound 3.16 µM, first compound 0.01 µM) 107% | viability, T/C [19] 114% | viability, T/C [20] 124% | viability, T/C (second compound 10 µM, first compound 0.000316 µM) 108% | viability, T/C (second compound 10 µM, first compound 0.001 µM) 101% | viability, T/C (second compound 10 µM, first compound 0.00316 µM) 104% | viability, T/C (second compound 10 µM, first compound 0.01 µM) 100% | viability, T/C [25] 100% | viability, T/C [26] 99.8%

Nc1ncn(C2CC(O)C(CO)S2)c(=O)n1 (stereo not given) + NC1CC1c1ccc(-c2cccc(O)c2)cc1
> 0.3 µM: IC50 (second compound 0.1 µM) | IC50 (second compound 0.316 µM) | IC50 (second compound 1 µM) | IC50 (second compound 3.16 µM) | IC50 (second compound 10 µM)
inactive: viability, T/C (second compound 0.1 µM, first compound 0.000949 µM) 114% | viability, T/C (second compound 0.1 µM, first compound 0.003 µM) 102% | viability, T/C [31] 104% | viability, T/C [32] 108% | viability, T/C [33] 108% | viability, T/C [34] 86.2% | viability, T/C (second compound 0.316 µM, first compound 0.000949 µM) 106% | viability, T/C (second compound 0.316 µM, first compound 0.003 µM) 92.7% | viability, T/C [35] 91% | viability, T/C [36] 107% | viability, T/C [37] 102% | viability, T/C [38] 81.1% | viability, T/C (second compound 1 µM, first compound 0.000949 µM) 117% | viability, T/C (second compound 1 µM, first compound 0.003 µM) 105% | viability, T/C [39] 102% | viability, T/C [40] 108% | viability, T/C [41] 82.4% | viability, T/C [42] 84.8% | viability, T/C (second compound 3.16 µM, first compound 0.000949 µM) 114% | viability, T/C (second compound 3.16 µM, first compound 0.003 µM) 101% | viability, T/C [43] 90.8% | viability, T/C [44] 104% | viability, T/C [45] 100% | viability, T/C [46] 71.5% | viability, T/C (second compound 10 µM, first compound 0.000949 µM) 104% | viability, T/C (second compound 10 µM, first compound 0.003 µM) 94.7% | viability, T/C [47] 96.8% | viability, T/C [48] 105% | viability, T/C [49] 103% | viability, T/C [50] 77.4%
